US20080227748A1, “Medicament Made From Laminarine or Oligolaminarines For Treatment of Septicemia and Septic Shock” (LABORATOIRES GOEMAR, priority 2005, published 2008)

Assay: Feeding treatment with Dectinan-enriched diet before injection of LPS (weight, consumption, glycemia, triglyceridemia, feces)
Design: species or system male Wistar Han rats
Conditions: rat, in vivo
Description: The animals selected for the abovesaid studies were male Wistar Han rats (Harlem, Netherlands).
The experiments were carried out on two groups of eight rats each.
The rats of one of the two groups—“control group”—had available to them “ad libitum” a standard feed with the AO4 trade name (UAR, France); the rats of the other group had available to them the same feed but supplemented with the above said laminarin, sold under the “Dectinan” trade name; in a first phase and for four days (−4 to −1), the feed was enriched with 5% by weight of Dectinan and then with 10% by weight in a second phase of 21 days (days 0 to 21); this second group of rats is denoted by “Dectinan group”.
The days on which the various withdrawals and measurements are made are identified in table I below.
a) Before injection of LPS • bodyweight • weight of wet feces and feces after freeze drying (collected over 24 h) • weight of the diet and of the drinking water • taking of blood from the caudal vein: quantitative determination of triglycerides and glucose
In this regard, the values mentioned later represent the mean ±SDM (Standard Deviation of the Mean). […]

Substance: laminarin [Dectinan®]
- Total consumption of drinking water: 611.5 ± 17.9 mL
- Total consumption of feed: 431.5 ± 6.0 g
